According to US10301630B2, “Methods and compositions for unsilencing imprinted genes” (The University of North Carolina at Chapel Hill, priority 2010, dated 2019):
“And” between values parts separate entries of the source, which are not always exact repeats. Equal values may be shown once. Read-outs that look alike come from different tables or passages of the source.

Tests used:
[1] = system: paternal Ube3a-YFP allele; experiment: High-content imaging of paternal Ube3a-YFP unsilencing in primary cortical neurons; assay type: cell-based, mouse; details: for EC50 / EC20 / maximal fold induction: Mus musculus; for EC20: Table 3, unsilencing the paternal allele of Ube3a-YFP in cultured neurons, 1 nM to 30 μM, read-out: Potency EC20; for unsilencing of paternal Ube3a-YFP in dose-response experiments: cultured Ube3a m+/pYFP neurons
Procedure: In all screening assays, primary cortical neurons from Ube3a-YFP mice are isolated from embryonic day 15.5 animals, and the genotype of animals is determined to identify mice that encode the Ube3a-YFP transgene on the paternal allele. Freshly isolated cortical neurons are seeded into 384 well plates and cultured for 7 days. At day in vitro seven, screening is performed using multiple chemical libraries and compound concentration of 10 μM in 0.2% DMSO vehicle. After 72 h of drug exposure (run in quadruplicate wells), neurons are fixed with 4% para formaldehyde and processed for immunofluorescence using an anti-GFP-Alexa 488 conjugated antibody to enhance the signal of Ube3a-YFP in neurons. For image analyses, individual wells of immunofluorescence-processed plates are imaged fro DAPI and GFP fluorescence using the BD-Pathway 855 high-content imaging microscope. Ube3a-YFP fluorescence intensities in individual neurons are determined in drug-treated wells and normalized to 0.2% DMSO-treated (i.e., vehicle control) wells using custom written macros and algorithms using NIH Image J and Arrayscan Cell Profiler software programs. These image analyses enable masking of nuclei in individual neurons and determination of Ube3a-YFP fluorescence intensity in the nuclei of individual neurons.
For these studies, DIV 7 primary neurons encoding paternal Ube3a-YFP are dose treated with hit compounds across seven orders of magnitude in full and half log molar concentrations (3 pM to 30 μM). Ube3a-YFP fluorescence intensities in living neurons are determined again by high-content imaging microscopy after 72 h treatments. The dose response results are analyzed by least squares sigmoidal dose-response curve fitting models using Graphpad Prism 5.0 (Graphpad Software, Inc.). The calculated EC50 values (potencies) and Y value top plateau (estimated efficacies or Emax) enable comparative analyses of the relative potency and efficacy of the identified compounds.
Primary cortical neurons were isolated from E13.5-16.5 Ube3a-YFP mice. Screening was performed in quadruplicate at DIV7 using multiple chemical libraries and a compound concentration of 10 μM in 0.2% DMSO vehicle. After 72 h of drug exposure, neurons were fixed with 4% paraformaldehyde in PBS for 35 min, permeabilized with 0.3% Triton X-100 in PBS on ice for 30 min, and blocked by 5% goat serum with 0.1% Triton X-100 in PBS at room temperature for 1 hr. Cells were incubated with a rabbit polyclonal antibody to GFP (1:1000, Novus Biologicals, NB600-308) at room temperature for 1 hr and then incubated with Alexa Fluor 488 goat antibody to rabbit IgG (1:200, Invitrogen, A11008) and DAPI (1:10,000, Invitrogen, D-1306) at room temperature for 30 min. Individual wells of immunofluorescence-processed plates were imaged for DAPI or Alexa 488 fluorescence using the BD Pathway 855 high-content imaging microscope with a 488 excitation/515 long pass filter. Antibody-enhanced UBE3A-YFP fluorescence intensities were determined from individual neurons in drug-treated wells and normalized to neurons in wells treated with 0.2% DMSO (vehicle control). Analyses were performed with custom macros and algorithms using NIH Image J and Arrayscan Cell Profiler software programs (Thermo Scientific/Cellomics). These image analyses enabled masking of nuclei in individual neurons and determination of UBE3A-YFP fluorescence intensities in the nuclei of individual neurons (FIG. 16).
DIV7 primary neurons from Ube3a^m+/pYFP mice were dose-treated for 72 h with topoisomerase I and II inhibitors in ten point dose-responses in full and half log molar concentrations (1 nM to 30 μM). Neurons were fixed, processed for immunofluorescence, and UBE3A-YFP fluorescence intensities were again determined by high-content imaging microscopy.

[2] = system: paternal Ube3a-YFP allele in spinal neurons; experiment: Intrathecal delivery, paternal Ube3a-YFP in spinal cord; assay type: in vivo, mouse; details: for unsilencing of paternal Ube3a-YFP after intrathecal injection: i.t. 5 μl, irinotecan 1000 nmol/day for 5 days, topotecan 200 nmol/day for 6 days
Procedure: A soft cloth is placed over the head and upper body of the animal to keep him calm. The experimenter grasps the pelvic girdle of mouse with his thumb and forefinger. Next, the experimenter traces the spinal column of the mouse with a needle. The disposable 30 gauge ½ inch needle is connected to a 50 ul Luer-hub Hamilton syringe. As long as the experimenter senses the bones of the spinal column, the angle of syringe is lowered at 45 degree to the horizontal. The experimenter inserts the needle 1 mm further to the spinal column. Following the 5 ul injection, the syringe is rotated slightly and removed. […] They are 100, 500 and 1000 nmole. Paternal Ube3a-YFP (+/Ey) mice are used throughout these experiments.
For immunocytochemistry in spinal cord, lumbosacral spinal cord (approximately L1 to S2 and inclusive of the area corresponding to intrathecal injection site) was removed from each mouse and immersion-fixed for 8 h in cold 4% paraformaldehyde/0.1M phosphate buffer (pH 7.4). After a period of cryoprotection in 30% sucrose in 0.1M phosphate buffer, each spinal cord was sectioned on a cryostat at 40 μm. Sections to be stained immediately were collected in PBS; sections to be saved for future study were placed in a PBS/ethylene glycol/glycerol solution and stored at −20° C. Every fourth section was incubated overnight in a mixture containing a chicken IgY to GFP (1:750; Ayes Labs, GFP-1020) and a mouse IgG1 to NeuN (1:250; Millipore, MAB377) and treated the following day with a cocktail containing goat anti-chicken IgY-Alexa 488 (1:200; Invitrogen, A-11039), goat anti-mouse IgG1-Alexa 568 (1:200; Invitrogen, A-21124), and DRAQ5 (1:10,000; Axxora, BOS-889-001). Immunostained sections were mounted from PBS onto SuperFrostPlus Slides (Fisher), which were then air-dried briefly, rehydrated with PBS, and coverslipped with FluoroGel (Electron Microscopy Sciences). For quantification studies, sections were imaged using a Nikon Eclipse 80i with Surveyor mosaic imaging software. For qualitative assessment, sections were imaged as maximal projections on a Zeiss LSM 510.
For cell counting in spinal cord, 14 to 18 sections per mouse in segments corresponding to the injection site were analyzed. Slices were imaged using a Nikon Eclipse 80i microscope equipped with a QimagingRetigaExi high-speed CCD camera system and Surveyor mosaic imaging software using a 10× objective. For qualitative purposes, selected sections were also imaged on a Zeiss LSM 510 confocal microscope. Cells were counted manually by individuals blind to the experimental groups from raw (unprocessed) images using ImageJ and Cellprofiler^35 software.
YFP intensity levels from confocal XYZ image stacks were measured using a semi-automated macro with ImageJ. Individual YFP-positive cells were selected by eye, the criteria being the Z plane having the largest area for each cell. Cell regions were defined by intensity thresholding or manual tracing and the average YFP intensity and percent saturation were calculated for each cell.
Following the injection, the syringe is rotated slightly and removed.

[3] = Cortical neurone, Table 1, unsilencing paternal Ube3a-YFP, cortical neurons, 72 h, read-out: EC50
[4] = Primary cortical neuron, concentration-response curves, 72 hr, n=4, mean±SEM, read-out: EC50 for unsilencing paternal Ube3a-YFP (FIG. 7)

SMILES | unsilencing of paternal Ube3a-YFP in the primary screen ([1]; 10 μM for 72 hours, Ube3a m+/pYFP neurons) | EC50 [1, 3] [nM] | EC20 ([1]; Neuron, 72 h) [nM] | EC50 [1, 4] [nM] | unsilencing of paternal Ube3a-YFP in dose-response experiments ([1]; 72 h) | unsilencing of paternal Ube3a-YFP after intrathecal injection [2] | maximal fold induction ([1]; Cortical neurone, 72 h, read-out: Efficacy Emax (fold over control)) | maximal fold induction ([1]; Neuron, 72 h, read-out: Efficacy Emax (fold over vehicle)) | relative potency versus irinotecan (FIG. 7) ([1]; unsilencing paternal Ube3a-YFP) [times] | relative potency versus irinotecan (Example 16) ([1]; upregulation of paternal UBE3A-YFP in cultured neurons) [×] | number of paternal UBE3A-YFP-positive cells in lumbar spinal cord ([2]; 50 nmol/5 μL i.t. once daily, 10 of 14 days) | expression level of unsilenced paternal UBE3A-YFP versus maternal controls ([2]; i.t. 50 nmol/day for 10 of 14 days) | percentage of UBE3A-YFP+ cells that were NeuN+ ([2]; i.t. 50 nmol/day for 10 of 14 days, paternal Ube3a-YFP mice) | time unsilencing of Ube3a-YFP was maintained after cessation of treatment ([2]; i.t. 50 nmol/day for 10 of 14 days, spinal neurons) | persistence of unsilencing 14 days after cessation ([2]; i.t. 100 nmol/day on 10 of 14 days, 14 days washout) | effectiveness at unsilencing in spinal cord compared with irinotecan ([2]; i.t., FIG. 8 Panels B and C)
CCc1c2c(nc3ccc(OC(=O)N4CCC(N5CCCCC5)CC4)cc13)-c1cc3c(c(=O)n1C2)COC(=O)[C@]3(O)CC [Irinotecan] | upregulated UBE3A-YFP fluorescence | 994 ± 10 | 994 ± 13 | 996 ± 10 | upregulate paternal UBE3A-YFP in a dose- and time-dependent manner | unsilenced the paternal Ube3a-YFP allele in spinal neurons and in DRG neurons | – | – | – | – | – | – | – | – | – | –
CC[C@@]1(O)C(=O)OCc2c1cc1n(c2=O)Cc2cc3c(CN(C)C)c(O)ccc3nc2-1 [Topotecan] | – | 54 ± 1.2 | 54 ± 3.4 | 55 ± 1.2 | upregulate paternal UBE3A-YFP in a dose- and time-dependent manner | unsilenced the paternal Ube3a-YFP allele in spinal neurons and in DRG neurons | 2.25 ± 0.07 | 2.25 ± 0.05 | ~20 | 20 | significantly increased the number of paternal UBE3A-YFP-positive cells | expressed at levels comparable to maternal UBE3A-YFP controls | > 93% and 93.25% | at least 12 weeks | unsilencing of paternal Ube3a persists | even more effective at unsilencing paternal Ube3a in spinal cord
